Source: ChEMBL document CHEMBL1201862, “PubChem BioAssay data set” (2004)
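Five concentrations, 48 hours, 96-well plates. Here, GI50 denotes the concentration required for 50% inhibition of growth.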 Active and inactive are the calls of the source. Rule as the data show it: active = GI50 up to about 1.1 µM and inactive = higher.

Experiments:
Assay in all cases: inhibition of tumour cell growth, NCI panel, 48 h
786-0 = system: 786-0
A498 = system: A498
ACHN = system: ACHN
COLO 205 = system: COLO 205
EKVX = system: EKVX
HT-29 = system: HT-29
IGROV-1 = system: IGROV-1
MOLT-4 = system: MOLT-4
NCI/ADR-RES = system: NCI/ADR-RES
OVCAR-4 = system: OVCAR-4
OVCAR-5 = system: OVCAR-5
SK-OV-3 = system: SK-OV-3
SN12C = system: SN12C
SNB-19 = system: SNB-19
SNB-75 = system: SNB-75
SR = system: SR
SW-620 = system: SW-620
T47D = system: T47D
MCF7 = system: MCF7

Measured: GI50

N#Cc1c(-c2ccccc2)c(C=O)c(=O)n2c1[nH]c1ccccc12
inactive: 786-0 > 100 µM | A498 26.1 µM | ACHN 78.3 µM | COLO 205 53.1 µM | EKVX > 100 µM | HT-29 92 µM | IGROV-1 > 100 µM | MOLT-4 33.7 µM | NCI/ADR-RES > 100 µM | OVCAR-4 20.5 µM | OVCAR-5 > 100 µM | SK-OV-3 > 100 µM | SN12C 45.3 µM | SNB-19 50.7 µM | SNB-75 22.1 µM | SR 67.6 µM | SW-620 42.6 µM | T47D 65.9 µM

Cc1ccc(/N=N/c2c(O)c(C(=O)O)cc3ccccc23)cc1C
inactive: 786-0 > 100 µM | ACHN > 100 µM | COLO 205 > 100 µM | EKVX > 100 µM | HT-29 > 100 µM | IGROV-1 > 100 µM | MCF7 > 100 µM | MOLT-4 > 100 µM | NCI/ADR-RES > 100 µM | OVCAR-4 > 100 µM | OVCAR-5 > 100 µM | SK-OV-3 > 100 µM | SNB-19 46.1 µM | SNB-75 > 100 µM | SR > 100 µM | SW-620 > 100 µM

O=C(COc1ccc(OCC(=O)N2C(=O)CS/C2=N\c2ccccc2)cc1)N1C(=O)CS/C1=N\c1ccccc1
inactive: 786-0 19.2 µM | A498 60 µM | ACHN 12.5 µM | COLO 205 20.5 µM | EKVX 32.8 µM | HT-29 14.4 µM | IGROV-1 2.38 µM | MCF7 19 µM | MOLT-4 14.6 µM | NCI/ADR-RES 19.5 µM | OVCAR-4 33.5 µM | OVCAR-5 12.7 µM | SK-OV-3 48.5 µM | SN12C 24.8 µM | SNB-19 31.6 µM | SNB-75 90.4 µM | SW-620 47.9 µM

COc1ccc(-c2cc(-c3ccco3)c(C#N)c(=S)n2C2OC(CO)C(O)C(O)C2O)cc1 (stereo not given)
inactive: 786-0 > 100 µM | A498 > 100 µM | ACHN > 100 µM | COLO 205 > 100 µM | EKVX > 100 µM | HT-29 > 100 µM | IGROV-1 92.3 µM | MCF7 58.6 µM | MOLT-4 > 100 µM | NCI/ADR-RES > 100 µM | OVCAR-4 > 100 µM | OVCAR-5 > 100 µM | SK-OV-3 1.57 µM | SN12C > 100 µM | SNB-19 > 100 µM | SNB-75 > 100 µM | SW-620 > 100 µM

O=C(CNc1ccccc1C(=O)O)Nn1cnc2ccc(S(=O)(=O)Nc3ccccc3C(=O)O)cc2c1=O
inactive: 786-0 > 100 µM | ACHN > 100 µM | COLO 205 > 100 µM | EKVX > 100 µM | HT-29 > 100 µM | IGROV-1 > 100 µM | MCF7 > 100 µM | MOLT-4 > 100 µM | NCI/ADR-RES > 100 µM | OVCAR-4 > 100 µM | OVCAR-5 > 100 µM | SK-OV-3 > 100 µM | SN12C > 100 µM | SNB-19 > 100 µM | SNB-75 > 100 µM | SR > 100 µM | SW-620 > 100 µM

O=C(O)C1=CCCc2ccc3ccccc3c21
inactive: 786-0 > 100 µM | A498 > 100 µM | ACHN > 100 µM | COLO 205 > 100 µM | EKVX > 100 µM | HT-29 > 100 µM | IGROV-1 > 100 µM | MOLT-4 > 100 µM | OVCAR-4 > 100 µM | OVCAR-5 > 100 µM | SK-OV-3 > 100 µM | SN12C > 100 µM | SNB-19 > 100 µM | SNB-75 85.3 µM | SW-620 > 100 µM
